Results taken from BigSolDB 2.1.

COc1ccc(C(=O)O)cc1
solubility (mole fraction)
Conditions	283.15 K	288.15 K	293.15 K	298.15 K	303.15 K	308.15 K	313.15 K	318.15 K	323.15 K	328.15 K
in 2-butanone	0.0107	0.0128	0.0149	0.0169	0.0198	0.023	0.0266	0.0298	0.0343	0.0394
in THF	0.0483	0.0518	0.0562	0.0621	0.0671	0.0731	0.078	0.085	0.0923	0.0991
in acetone	0.0129	0.0153	0.0173	0.0197	0.0224	0.026	0.0298	0.032	0.0344	0.0368
in cyclohexanone	0.0187	0.0203	0.022	0.025	0.0292	0.034	0.0397	0.0449	0.0507	0.059
in ethyl formate	0.00442	0.00508	0.00606	0.00738	0.00889	0.0114	0.0135	0.0152	0.0178	0.0195
in ethylene glycol	0.0022	0.00292	0.0038	0.0046	0.00546	0.00649	0.00768	0.00885	0.0105	0.0126
in isobutanol	0.00435	0.00548	0.00691	0.00889	0.0116	0.0143	0.0178	0.0206	0.025	0.0288
in isopropyl acetate	0.00637	0.00732	0.00833	0.00955	0.0116	0.0135	0.0156	0.0179	0.021	0.0246
in n-butanol	0.00647	0.0077	0.00946	0.011	0.0133	0.0158	0.0186	0.0218	0.0255	0.0302
in n-butyl acetate	0.00629	0.00719	0.00867	0.0106	0.0118	0.0136	0.0158	0.0178	0.021	0.0244
in n-pentanol	0.00696	0.00853	0.0101	0.012	0.014	0.0169	0.0197	0.0234	0.0272	0.0313
in n-propyl acetate	0.00732	0.00802	0.0089	0.0103	0.0118	0.0136	0.0155	0.0182	0.0209	0.0237
in sec-butanol	0.00623	0.00789	0.0101	0.0121	0.0149	0.0182	0.0219	0.0274	0.0317	0.0362
in toluene	0.00062	0.00086	0.0012	0.00152	0.00196	0.00252	0.00301	0.00369	0.0044	0.0054
